Measured values as given in article PMC11129182, “Development of Inhibitors, Probes, and PROTAC Provides a Complete Toolbox to Study PARK7 in the Living Cell” (Journal of Medicinal Chemistry, 2024).

Tested on: other proteins of A549 cells
Assay: TMT-based global proteomic profiling in A549 cells, other proteins
Assay type: cell-based, Homo sapiens
Conditions: A549 cells, 5 μM, 8 h
Protocol: A549 cells were seeded into 10 cm plates in 10 mL of media. […] Cells were lysed using a 5% SDS lysis buffer (100 mM Tris-HCl, pH 7.6) and were incubated at 95 °C for 4 min. Protein determination was performed using the Pierce BCA Gold protein assay. 100 μg of protein of each sample was reduced and alkylated, and excess iodoacetamide was quenched using 5 mM TCEP, 15 mM iodoacetamide, and 10 mM DTT, respectively. The protein was pelleted down using chloroform/methanol precipitation, and the resulting pellets were resolubilized in 40 mM HEPES pH 8.4. […] The Pierce BCA Gold protein assay was used to determine the peptide concentration. The peptides were labeled with TMTpro Label Reagents in a 1:4 ratio by mass (peptides/TMT reagents) for 1 h at RT. Five μL of 6% hydroxylamine was added to quench excess TMT reagent and incubated for 15 min at RT. Samples were pooled and lyophilized. The sample was subsequently fractionated on an Agilent 1200 series HPLC system (Agilent Technologies). 75 μg of the pooled sample was dissolved in solvent A (10 mM NH4HCO3, pH 8.4), injected onto, and eluted from an Agilent Eclipse Plus C18 2.1 × 150 mm 3.5 μm column (Agilent Technologies). The gradient was run from 2 to 90% solvent B (10 mM NH4HCO3, pH 8.4 final concentration, 20/80 water/acetonitrile v/v) in 30 min at a flow rate of 200 μL/min. Twelve fractions were made; every 30 s a fraction was collected in a vial, and the eluate of the next 30 s was collected in the next vial and so on until it loops back to the first vial (5 loops of 6 min each). Afterward, the samples were lyophilized.
2.2.07 (www.matrixscience.com) for protein identification. Mascot searches were with 10 ppm and 0.02 Da deviation for precursor and fragment mass, respectively. Enzyme specificity was set to trypsin. Up to two missed cleavages were allowed. Methionine oxidation and acetyl on protein N-terminus were set as variable modifications. Carbamidomethyl on Cys and TMTpro on Lys and N-terminus were set as fixed modifications. Protein FDR of 1% was set. Normalization was on total peptide amount. The values for each TMT channel were normalized to the average of the values for the DMSO samples for the same peptide, and these values were named FC. The log2 FC values of all replicates for the same master protein were averaged to give the “Average log2 FC”. A one-sample t test was performed against the null hypothesis of log2 FC = 0, and the resulting −log10p values were reported for each protein. The volcano plot was plotted using GraphPad Prism v.9.01.

N#CN1CC[C@@H](C(=O)Nc2nc3c(s2)CN(C(=O)c2cc(-n4ccnn4)ccc2F)CC3)C1 [Compound 84, (R)-1-Cyano-N-(5-(2-fluoro-5-(1H-1,2,3-triazol-1-yl)benzoyl)-4,5,6,7-tetrahydrothiazolo[5,4-c]pyridin-2-yl)pyrrolidine-3-carboxamide]
DOP1B protein level (total proteome profiling): downregulated
